According to the supplement of paper PMC10627819:

Assays:
[1] = system: B. subtilis 168; test: fitness (endpoint OD595 vs no drug) (fraction); higher = more growth
Outline: (§1)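 Fitness compares growth at the stationary-phase transition with the robust mean of no-drug control wells, as a ratio of optical densities. The ratio is capped at 1. Wells of 384-well plates held 30 µl, or 55 µl for S. pneumoniae, inoculated at OD595 0.01. Readings at OD595 every 30 min for 14 h at 37 °C were corrected against the first reading.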

[2] = system: S. pneumoniae D39V; test: as above
Outline: as §1

[3] = system: B. subtilis 168; test: Bliss interaction score (quartile over a dose matrix) (fitness difference); higher = more antagonism (negative = synergy)
Outline: (§2)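 The Bliss score is observed minus expected fitness under the product model, reported as quartiles over technical, biological and donor/recipient replicates. Fitness is the OD595 at entry into stationary phase divided by the plate's robust no-drug mean and capped at 1. Single-drug fitness was inferred from combination data.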

[4] = system: S. aureus DSM 20231; test: as above
Outline: as §2

[5] = system: S. aureus Newman; test: as above
Outline: as §2

[6] = system: S. pneumoniae D39V; test: as above
Outline: as §2
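For Bliss interaction score (quartile over a dose matrix) in this document: first quartile when negative (synergy) and third quartile when positive (antagonism).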

CCC[C@@H]1C[C@@H](C(=O)N[C@@H]([C@H]2O[C@H](SC)[C@H](O)[C@@H](O)[C@H]2O)[C@@H](C)O)N(C)C1 [Lincomycin] + CN(C)c1cc(NC(=O)CNC(C)(C)C)c(O)c2c1C[C@H]1C[C@H]3[C@H](N(C)C)C(O)=C(C(N)=O)C(=O)[C@@]3(O)C(O)=C1C2=O [Tigecycline]
fitness
Settings | first compound 0.1 µg/mL | first compound 0.2 µg/mL | first compound 0.215 µg/mL | first compound 0.4 µg/mL | first compound 0.43 µg/mL | first compound 0.8 µg/mL | first compound 0.86 µg/mL
[1], partner 0.039 µg/mL | 0.894 | 0.865 | – | 0.979 | – | – | –
[1], partner 0.078 µg/mL | 0.953 | 0.861 | – | 0.897 | – | – | –
[1], partner 0.156 µg/mL | 0.924 | 0.867 | – | 0.846 | – | – | –
[2], partner 0.65 µg/mL | – | 0.637 | 0.804 | 0.572 | 0.745 | 0.275 | 0.238
[2], partner 1.3 µg/mL | – | 0.63 | 0.789 | 0.578 | 0.694 | 0.314 | 0.213
[2], partner 2.6 µg/mL | – | 0.618 | 0.802 | 0.572 | 0.648 | 0.186 | 0.156

fitness, [1], one replicate
Settings | first compound 0.4 µg/mL | first compound 0.8 µg/mL | first compound 1.6 µg/mL
partner 0.125 µg/mL | 0.977 | ≥ 1 | 0.944
partner 0.25 µg/mL | 0.856 | 0.886 | 0.845
partner 0.5 µg/mL | 0.867 | 0.888 | 0.907

Settings | Bliss interaction score
[3] | -0.076
[4] | -0.213
[5] | 0.0588
[6] | -0.133

CCC[C@@H]1C[C@@H](C(=O)N[C@@H]([C@H]2O[C@H](SC)[C@H](O)[C@@H](O)[C@H]2O)[C@H](C)Cl)N(C)C1 [Clindamycin] + C[C@H]1c2cccc(O)c2C(=O)C2=C(O)[C@]3(O)C(=O)C(C(N)=O)=C(O)[C@@H](N(C)C)[C@@H]3[C@@H](O)[C@@H]21 [Doxycycline]
fitness, one replicate
Settings | partner 0.003875 µg/mL | partner 0.00775 µg/mL | partner 0.02 µg/mL | partner 0.031 µg/mL | partner 0.04 µg/mL | partner 0.062 µg/mL | partner 0.08 µg/mL
[1], first compound 0.0039 µg/mL | – | – | 0.97 | – | 0.891 | – | 0.677
[1], first compound 0.0078 µg/mL | – | – | 0.831 | – | 0.781 | – | 0.515
[1], first compound 0.0156 µg/mL | – | – | 0.824 | – | 0.743 | – | 0.235
[2], first compound 0.015 µg/mL | 0.934 | 0.931 | – | 0.803 | – | 0.567 | –
[2], first compound 0.03 µg/mL | 0.778 | 0.777 | – | 0.588 | – | 0.359 | –
[2], first compound 0.06 µg/mL | 0.714 | 0.743 | – | 0.405 | – | 0.163 | –

Settings | fitness
[1], first compound 0.0625 µg/mL, partner 0.04 µg/mL | 0.406
[1], first compound 0.0625 µg/mL, partner 0.08 µg/mL | 0.0499
[1], first compound 0.125 µg/mL, partner 0.02 µg/mL | 0.389
[1], first compound 0.125 µg/mL, partner 0.04 µg/mL | 0.164
[1], first compound 0.125 µg/mL, partner 0.08 µg/mL | 0.0428
[1], first compound 0.25 µg/mL, partner 0.02 µg/mL | 0.293
[1], first compound 0.25 µg/mL, partner 0.04 µg/mL | 0.11
[1], first compound 0.25 µg/mL, partner 0.08 µg/mL | 0.0404
[2], first compound 0.0125 µg/mL, partner 0.0155 µg/mL | 0.451
[2], first compound 0.0125 µg/mL, partner 0.031 µg/mL | 0.35
[2], first compound 0.0125 µg/mL, partner 0.062 µg/mL | 0.114
[2], first compound 0.015 µg/mL, partner 0.0155 µg/mL | 0.876
[2], first compound 0.025 µg/mL, partner 0.0155 µg/mL | 0.28
[2], first compound 0.025 µg/mL, partner 0.031 µg/mL | 0.245
[2], first compound 0.025 µg/mL, partner 0.062 µg/mL | 0.078
[2], first compound 0.03 µg/mL, partner 0.0155 µg/mL | 0.745
[2], first compound 0.05 µg/mL, partner 0.0155 µg/mL | 0.0637
[2], first compound 0.05 µg/mL, partner 0.031 µg/mL | 0.0376
[2], first compound 0.05 µg/mL, partner 0.062 µg/mL | 0.073
[2], first compound 0.06 µg/mL, partner 0.0155 µg/mL | 0.577

Settings | Bliss interaction score
[3] | -0.184
[4] | -0.0562
[5] | -0.135
[6] | -0.151

CCC[C@@H]1C[C@@H](C(=O)N[C@@H]([C@H]2O[C@H](SC)[C@H](O)[C@@H](O)[C@H]2O)[C@H](C)Cl)N(C)C1 [Clindamycin] + CCC(C)C1C(=O)NC(=C)C(=O)NC(C(=O)NC(CSCC(C(=O)N1)NC(=O)/C(=C/C)/NC(=O)C(C(C)CC)N)C(=O)NC2C(SCC(NC(=O)CNC(=O)C3CCCN3C2=O)C(=O)NC(CCCCN)C(=O)NC4C(SCC(NC(=O)CNC(=O)C(NC(=O)C(NC(=O)C(NC(=O)CNC4=O)C)CC(C)C)CCSC)C(=O)NC(CC(=O)N)C(=O)NC(CCSC)C(=O)NC(CCCCN)C(=O)NC5C(SCC6C(=O)NC(C(=O)NC(CSC(C(C(=O)N6)NC(=O)C(NC5=O)C)C)C(=O)NC(CO)C(=O)NC(C(C)CC)C(=O)NC(CC7=CN=CN7)C(=O)NC(C(C)C)C(=O)NC(=C)C(=O)NC(CCCCN)C(=O)O)CC8=CN=CN8)C)C)C)CC(C)C [Nisin]
fitness, [1], one replicate, main component drawn
Settings | first compound 0.0039 µg/mL | first compound 0.0078 µg/mL | first compound 0.0156 µg/mL | first compound 0.0625 µg/mL | first compound 0.125 µg/mL | first compound 0.25 µg/mL
partner 0.5 µg/mL | 0.985 | 0.875 | 0.858 | 0.559 | 0.461 | 0.402
partner 1 µg/mL | 0.936 | 0.847 | 0.834 | 0.565 | 0.389 | 0.371
partner 1.25 µg/mL | – | – | – | 0.647 | 0.47 | 0.386
partner 1.6 µg/mL | – | – | – | 0.455 | 0.196 | 0.0539
partner 2 µg/mL | 0.855 | 0.771 | 0.742 | 0.261 | 0.25 | 0.0613
partner 2.5 µg/mL | – | – | – | 0.564 | 0.423 | 0.275
partner 3.2 µg/mL | – | – | – | 0.0252 | 0.0383 | 0.0454
partner 4 µg/mL | – | – | – | 0.0334 | 0.0299 | 0.0361
partner 5 µg/mL | – | – | – | 0.171 | 0.0548 | 0.0507
partner 6.4 µg/mL | – | – | – | 0.0392 | 0.0456 | 0.0461
partner 8 µg/mL | – | – | – | 0.0341 | 0.0157 | 0.0269
partner 16 µg/mL | – | – | – | 0.0049 | 0.0089 | 0.0163

[2], main component drawn
Settings | fitness
first compound 0.0125 µg/mL, partner 1.6 µg/mL | 0.0319
first compound 0.0125 µg/mL, partner 3.2 µg/mL | 0.0224
first compound 0.0125 µg/mL, partner 6.4 µg/mL | 0.0205
first compound 0.015 µg/mL, partner 0.4275 µg/mL | 0.923
first compound 0.015 µg/mL, partner 1.71 µg/mL | 0.11
first compound 0.025 µg/mL, partner 1.6 µg/mL | 0.0417
first compound 0.025 µg/mL, partner 3.2 µg/mL | 0.0389
first compound 0.025 µg/mL, partner 6.4 µg/mL | 0.0111
first compound 0.03 µg/mL, partner 0.4275 µg/mL | 0.774
first compound 0.03 µg/mL, partner 1.71 µg/mL | 0.0769
first compound 0.05 µg/mL, partner 1.6 µg/mL | 0.0221
first compound 0.05 µg/mL, partner 3.2 µg/mL | 0.0421
first compound 0.05 µg/mL, partner 6.4 µg/mL | 0.0305
first compound 0.06 µg/mL, partner 0.4275 µg/mL | 0.645
first compound 0.06 µg/mL, partner 0.855 µg/mL | 0.252
first compound 0.06 µg/mL, partner 1.71 µg/mL | 0.0778

main component drawn
Settings | Bliss interaction score
[3] | 0.0605
[4] | 0.0292
[5] | 0.0857
[6] | -0.0351
